Data: US20240116946A1 (Gilead Sciences, Inc., priority 2022, published 2024)
Where two headings read alike, the source gives them in different places.

What was measured:
[1] = biological target: recombinant SARS-CoV-2 Main protease (Mpro) (Severe acute respiratory syndrome coronavirus 2 (2019-nCoV) (SARS-CoV-2), UniProt P0DTD1); experiment: Cov Mpro Biochemical IC50 Assay; conditions: read-out: MPro IC50
SARS-CoV-2-NLuc = experiment: microbe, parasite or virus in culture; assay type: cell-based, SARS Coronavirus 2
[2] = recombinant SARS-CoV-2 Mpro 7.5 nM, fluorogenic peptide substrate 40 μM
[3] = Severe acute respiratory syndrome coronavirus, 48 h, read-out: MPro EC50
[4] = recombinant SARS-CoV-2 Mpro, fluorogenic peptide substrate
[5] = Severe acute respiratory syndrome coronavirus, 48 h; read-out: MPro EC50

Q: `COc1ccc(C#N)c(-c2cc3[nH]c(=O)n(-c4cncc5ccc(N6CCn7c(nnc7C(F)(F)F)C6)cc45)c(=O)c3s2)c1` [Example 602] was tested. Which IC50 [1, 2] did it give?
A: 5.77 nM

Q: And the EC50 (SARS-CoV-2-NLuc; [3])?
A: 359 nM

Q: How did the IC50 [1, 2] turn out when `COc1cc(-c2cc3c(s2)c(=O)n(-c2cccnc2)c(=O)n3CCC#N)c(Cl)cc1F` [Example 982] was run?
A: 4.12 nM

Q: What about the EC50 (SARS-CoV-2-NLuc; [3]) of the same compound?
A: 7.89 nM

Q: With `Cc1c(-c2cccc(Cl)c2-c2ccc3c(=O)n(-c4cncc5ccccc45)c(=O)[nH]c3c2)cnn1C1CCNCC1` [Example 473] as the compound, how does the IC50 [1, 2] read?
A: 17.5 nM

Q: What about the EC50 (SARS-CoV-2-NLuc; [3]) of the same compound?
A: 1810 nM

Q: How did the IC50 [1, 2] turn out when `COc1cc(-c2cc3[nH]c(=O)n(-c4cncc5c(CO)nn(C)c45)c(=O)c3s2)c(Cl)cc1F` [Example 699] was run?
A: 10.6 nM

Q: And the EC50 (SARS-CoV-2-NLuc; [3])?
A: 470 nM

Q: Which IC50 [1, 4] does the source give for `O=c1c2sc(-c3ccccc3Cl)cc2n(Cc2ccnnc2)c(=O)n1-c1cncc2ccccc12` [Example 155] here?
A: 9.13 nM

Q: And the EC50 (SARS-CoV-2-NLuc; [3])?
A: 125 nM

Q: Which IC50 [1, 2] does the source give for `COc1cnc(Cl)c(-c2cc3c(s2)c(=O)n(-c2cncc4ccccc24)c(=O)n3CCC#N)c1` (single isomer, unassigned) [Example 1088, 3-(6-(2-chloro-5-methoxypyridin-3-yl)-3-(isoquinolin-4-yl)-2,4-dioxo-3,4-dihydrothieno[3,2-d]pyrimidin-1(2H)-yl)propanenitrile] here?
A: 1.65 nM

Q: What about the EC50 (SARS-CoV-2-NLuc; read-out: MPro EC50) of the same compound?
A: 3.27 nM

Q: What does the source list for `COc1ccc(Cl)c(-c2cc3[nH]c(=O)n(-c4cncc5cccc(F)c45)c(=O)c3s2)c1` [Example 445]?
A: IC50 [1, 2]: 5.71 nM; EC50 (SARS-CoV-2-NLuc; [3]): 22 nM

Q: `COc1ccc(Cl)c(-c2cc3[nH]c(=O)n(-c4cncc5ccc(N6CCC(F)(F)C6)cc45)c(=O)c3s2)c1` [Example 414] was tested. Which IC50 [1, 2] did it give?
A: 7.63 nM

Q: What about the EC50 (SARS-CoV-2-NLuc; [3]) of the same compound?
A: 20.1 nM

Q: Which IC50 [1, 4] does the source give for `O=c1[nH]c2cc(-c3c(Cl)cccc3-c3ccnc(C(F)(F)F)c3)ccc2c(=O)n1-c1cncc2ccccc12` [Example 334] here?
A: 78.6 nM

Q: And the EC50 (SARS-CoV-2-NLuc; [3])?
A: 81.9 nM

Q: For `Cc1nc(COc2cccc(Cl)c2-c2ccc3c(=O)n(-c4cncc5ccccc45)c(=O)[nH]c3c2)co1` [Example 87], which IC50 [1, 4] is on record?
A: 172 nM

Q: And the EC50 (SARS-CoV-2-NLuc; [3])?
A: 203 nM

Q: How did the IC50 [1, 4] turn out when `N#Cc1cc(F)c(F)cc1-c1ccc2c(=O)n(-c3cncc4ccccc34)c(=O)[nH]c2c1` [Example 323] was run?
A: 112 nM

Q: What about the EC50 (SARS-CoV-2-NLuc; [3]) of the same compound?
A: 557 nM

Q: Which results are given for `COc1cc(-c2cc3c(s2)c(=O)n(-c2cncc(C#N)c2)c(=O)n3CCC#N)c(Cl)cc1F` [Example 1040, 5-(6-(2-chloro-4-fluoro-5-methoxyphenyl)-1-(2-cyanoethyl)-2,4-dioxo-1,4-dihydrothieno[3,2-d]pyrimidin-3(2H)-yl)nicotinonitrile]?
A: IC50 [1, 2]: 4.64 nM; EC50 (SARS-CoV-2-NLuc; [5]): 9.66 nM

Q: What does the source list for `COc1cc(-c2cc3c(s2)c(=O)n(-c2cncc(Cl)c2C)c(=O)n3CCC#N)c(Cl)cc1F` (single isomer, unassigned) [Example 1032, 3-[6-(2-chloro-4-fluoro-5-methoxy-phenyl)-3-(5-chloro-4-methyl-3-pyridyl)-2,4-dioxo-thieno[3,2-d]pyrimidin-1-yl]propanenitrile]?
A: IC50 [1, 2]: 1.99 nM; EC50 (SARS-CoV-2-NLuc; read-out: MPro EC50): 2.02 nM

Q: `O=c1[nH]c2cc(-c3c(Cl)cccc3-c3ccc4c(c3)CCO4)ccc2c(=O)n1-c1cncc2ccccc12` [Example 179] was tested. Which IC50 [1, 4] did it give?
A: 195 nM

Q: And the EC50 (SARS-CoV-2-NLuc; [3])?
A: 84.8 nM

Q: How did the IC50 [1, 2] turn out when `COc1cccc(C#N)c1-c1cc2c(s1)c(=O)n(-c1cncc3cnn(C)c13)c(=O)n2CCC#N` [Example 838, 2-(1-(2-cyanoethyl)-3-(1-methyl-1H-pyrazolo[4,3-c]pyridin-7-yl)-2,4-dioxo-1,2,3,4-tetrahydrothieno[3,2-d]pyrimidin-6-yl)-3-methoxybenzonitrile] was run?
A: 32.5 nM

Q: And the EC50 (SARS-CoV-2-NLuc; [3])?
A: 115 nM

Q: For `N#Cc1cc(-c2cccc(Cl)c2-c2ccc3c(=O)n(-c4cncc5ccccc45)c(=O)[nH]c3c2)ccn1` [Example 328], which IC50 [1, 4] is on record?
A: 15.4 nM

Q: And the EC50 (SARS-CoV-2-NLuc; [3])?
A: 45.9 nM

Q: Which IC50 [1, 4] does the source give for `CN1C(=O)COc2cc(-c3cccc(Cl)c3-c3ccc4c(=O)n(-c5cncc6ccccc56)c(=O)[nH]c4c3)cnc21` [Example 195] here?
A: 8.82 nM

Q: What about the EC50 (SARS-CoV-2-NLuc; [3]) of the same compound?
A: 9.06 nM

Q: With `N#Cc1ccccc1-c1cnc2c(=O)n(-c3cncc4ccccc34)c(=O)[nH]c2c1` [Example 69] as the compound, how does the IC50 [1, 4] read?
A: 53.1 nM

Q: And the EC50 (SARS-CoV-2-NLuc; [3])?
A: 4210 nM

Q: What does the source list for `COc1cc(F)ccc1-c1cc2[nH]c(=O)n(-c3cncc4ccccc34)c(=O)c2s1` [Example 178]?
A: IC50 [1, 4]: 221 nM; EC50 (SARS-CoV-2-NLuc; [3]): 196 nM

Q: `Cc1cncc(-n2c(=O)c3sc(-c4ccccc4C#N)cc3n(CC3(C#N)CC3)c2=O)c1` [Example 802] was tested. Which IC50 [1, 2] did it give?
A: 3.02 nM

Q: And the EC50 (SARS-CoV-2-NLuc; [5])?
A: 7.09 nM

Q: How did the IC50 [1, 2] turn out when `Cn1nnc2cncc(-n3c(=O)c4sc(-c5ccc(F)cc5Cl)cc4n(CCC#N)c3=O)c21` [Example 773, 3-[6-(2-chloro-4-fluoro-phenyl)-3-(1-methyltriazolo[4,5-c]pyridin-7-yl)-2,4-dioxo-thieno[3,2-d]pyrimidin-1-yl]propanenitrile] was run?
A: 25.5 nM

Q: What about the EC50 (SARS-CoV-2-NLuc; [3]) of the same compound?
A: 67.5 nM

Q: For `COc1ccc(C#N)c(-c2cc3[nH]c(=O)n(-c4cncc5c4OCCC5)c(=O)c3s2)c1` [Example 587], which IC50 [1, 2] is on record?
A: 27.9 nM

Q: What about the EC50 (SARS-CoV-2-NLuc; [3]) of the same compound?
A: 117 nM

Q: For `COc1cc(-c2cc3c(s2)c(=O)n(-c2cncc4ccc(F)cc24)c(=O)n3CCC#N)c(Cl)cc1F` [Example 945], which IC50 [1, 2] is on record?
A: 8 nM

Q: And the EC50 (SARS-CoV-2-NLuc; [3])?
A: 8.65 nM

Q: How did the IC50 [1, 2] turn out when `COc1cc(-c2cc3c(s2)c(=O)n(-c2cncc4cnn(C)c24)c(=O)n3CCC#N)c(Cl)cc1F` [Example 642, 3-[6-(2-chloro-4-fluoro-5-methoxy-phenyl)-3-(1-methylpyrazolo[4,3-c]pyridin-7-yl)-2,4-dioxo-thieno[3,2-d]pyrimidin-1-yl]propanenitrile] was run?
A: 8.54 nM

Q: What about the EC50 (SARS-CoV-2-NLuc; [5]) of the same compound?
A: 4.59 nM

Q: `Cc1noc(C)c1-c1cc2c(s1)c(=O)n(-c1cncc3cnn(C)c13)c(=O)n2CCC#N` [Example 930] was tested. Which IC50 [1, 2] did it give?
A: 541 nM

Q: And the EC50 (SARS-CoV-2-NLuc; [3])?
A: > 1000 nM

Q: `Cn1ncc2cncc(-n3c(=O)c4sc(-c5ccc(F)cc5Cl)cc4n(CCC#N)c3=O)c21` (single isomer, unassigned) [Example 956, 3-(6-(2-chloro-4-fluorophenyl)-3-(1-methyl-1H-pyrazolo[4,3-c]pyridin-7-yl)-2,4-dioxo-3,4-dihydrothieno[3,2-d]pyrimidin-1(2H)-yl)propanenitrile] was tested. Which IC50 [1, 2] did it give?
A: > 1000 nM

Q: What about the EC50 (SARS-CoV-2-NLuc; read-out: MPro EC50) of the same compound?
A: 699 nM

Q: What does the source list for `O=c1[nH]c2c(F)c(-c3ccccc3Cl)ccc2c(=O)n1-c1cncc2ccccc12` [Example 82]?
A: IC50 [1, 4]: 1370 nM; EC50 (SARS-CoV-2-NLuc; [3]): 2860 nM

Q: For `Cn1ncc2cncc(-n3c(=O)c4sc(-c5cc(C#N)ccc5Cl)cc4n(CCC#N)c3=O)c21` [Example 811], which IC50 [1, 2] is on record?
A: 13.2 nM

Q: What about the EC50 (SARS-CoV-2-NLuc; [3]) of the same compound?
A: 53.5 nM

Q: With `COc1cccc(C#N)c1-c1cc2[nH]c(=O)n(-c3cncc4ccccc34)c(=O)c2s1` [Example 536] as the compound, how does the IC50 [1, 2] read?
A: 21.2 nM

Q: And the EC50 (SARS-CoV-2-NLuc; [3])?
A: 46.4 nM

Q: With `COc1cnc(Cl)c(-c2cc3c(s2)c(=O)n(-c2cncc4ccccc24)c(=O)n3CCC#N)c1` [Example 942] as the compound, how does the IC50 [1, 2] read?
A: 12 nM

Q: What about the EC50 (SARS-CoV-2-NLuc; [3]) of the same compound?
A: 13.2 nM

Q: `COc1cc(-c2cc3[nH]c(=O)n(-c4cncc5c(F)cccc45)c(=O)c3s2)c(Cl)cc1F` [Example 1081] was tested. Which IC50 [1, 2] did it give?
A: 8.16 nM

Q: What about the EC50 (SARS-CoV-2-NLuc; [3]) of the same compound?
A: 17.9 nM

Q: Which results are given for `COc1ccc(Cl)c(-c2cc3[nH]c(=O)n(-c4cncc5c(F)cccc45)c(=O)c3s2)c1` [Example 585]?
A: IC50 [1, 2]: 10.1 nM; EC50 (SARS-CoV-2-NLuc; [3]): 29.3 nM

Q: `N#CCCn1c(=O)n(-c2cncc3cccnc23)c(=O)c2sc(-c3ccccc3Cl)cc21` [Example 905] was tested. Which IC50 [1, 2] did it give?
A: 5.93 nM

Q: What about the EC50 (SARS-CoV-2-NLuc; [3]) of the same compound?
A: 4.17 nM

Q: Which IC50 [1, 4] does the source give for `Cc1c(-c2cccc(Cl)c2-c2ccc3c(=O)n(-c4cncc5ccccc45)c(=O)[nH]c3c2)cn2ncnc2c1C` [Example 233] here?
A: 12.3 nM

Q: What about the EC50 (SARS-CoV-2-NLuc; [3]) of the same compound?
A: 26.8 nM

Q: How did the IC50 [1, 2] turn out when `COc1cc(-c2cc3c(s2)c(=O)n(-c2cncc4cnc(C)n24)c(=O)n3CCC#N)c(Cl)cc1F` [Example 980] was run?
A: 7.64 nM

Q: And the EC50 (SARS-CoV-2-NLuc; [3])?
A: 10.4 nM
